Experimental data as given in patent US20040186022A1, “Enhanced herbicides” (priority 1999, published 2004).
One block for each compound: values may come before it.

What was measured:
[1] = system: black beans (dry bean variety T39); assay: Synergistic interactions of succinic acid and di-ammonium succinate with other herbicidal compounds, dry beans (black); format: in vivo; conditions: for Injury rating, average per plot: scale 1-5
From the text: (§1) The herbicides were applied in the “spray to drip” amount or at a calibrated 20-60 gallons/acre. “Spray to drip” is an uncalibrated application of fluid to foliage, where sufficient spray volume is used to sufficiently saturate the foliage surface until excess fluid begins to drip from the foliage.

[2] = system: navy dry beans (navy Vista); assay: Synergistic interactions of succinic acid and di-ammonium succinate with herbicidal compounds, navy dry beans; format: in vivo, dry bean (navy); conditions: for Injury rating, average per plot: scale 1-5
From the text: as §1

[3] = system: 40 G/a: crab grass, pigweed, chick weed and foxtail; 60 G/a: pigweed, Kentucky bluegrass, foxtail, crab grass and barnyard grass; spray to drip: Kentucky …; assay: Herbicidal activities: synergy between succinic acid and pelargonic acid; format: in vivo
From the text: as §1

plants [4] = assay: Synergistic relationship between succinic acid and caprylic/capric acids C/C, herbicidal activity; format: in vivo
From the text: as §1

[5] = system: Kentucky bluegrass, velvetleaf, foxtail, tomato, potato and snapbeans
From the text: as §1

[6] = system: 60 G/a: lambsquarter, pigweed and velvetleaf; spray to drip: lambsquarter and foxtail; assay: Herbicidal activity of caproic acid with succinic acid and sodium salicylate; format: in vivo; conditions: for Total Injury ratings, Total score: 60 G/a plus spray to drip; for Total injury ratings, 60 G/a: 4 pots/treatment, lambsquarter, pigweed and velvetleaf, rating 1-5 per pot; for Total injury ratings, Spray to drip: 2 pots/treatment, lambsquarter and foxtail
From the text: as §1

young potato plants = assay: Effects of desiccants and desiccant combinations with other compounds on young potato plants; format: in vivo; design: All evaluations (total score): scale not given here
From the text: as §1

[7] = system: 60 G/a: black nightshade, redroot pigweed, lambsquarter, foxtail, velvetleaf and snapbeans; spray to drip: redroot pigweed, lambsquarter, velvetleaf and …; assay: Efficacy of 2% caprylic with succinic or ammonium succinate in an emulsification system (Emsorb 6900); format: in vivo
From the text: as §1

[8] = system: 60 G/a: lambsquarter, pigweed, velvetleaf and foxtail; spray to drip: velvetleaf and foxtail; assay: Herbicidal activity of caprylic acid combined with salts of succinate +/- sodium salicylate; format: in vivo
From the text: as §1

plants [9] = assay: Herbicidal enhancement of pelargonic by succinic acid and diammonium succinate; format: in vivo
From the text: as §1

[10] = system: 60 G/a: velvetleaf, black nightshade, redroot pigweed, foxtail and snapbeans; spray to drip: black nightshade, velvetleaf, foxtail and snapbeans; assay: Efficacy of 1.5% succinic acid with oleic, caprylic or pelargonic acid in an emulsification system (Emsorb 6900); format: in vivo; design: Injury rating, total score for 2 evaluation, Spray to drip / Injury rating, total score for 2 evaluation, Total Rating: scale not given here
From the text: as §1

[11] = system: 60 G/a: black nightshade, redroot pigweed, foxtail, lambsquarter and snapbeans; spray to drip: redroot pigweed, velvetleaf, nutsedge and foxtail; assay: Efficacy of 3% caprylic with succinic or ammonium succinate in an emulsification system (Emsorb 6900); format: in vivo
From the text: as §1

plants [12] = assay: Herbicidal activity: comparison of caprylic, pelargonic and an equimolar mixture of caprylic and pelargonic acids; format: in vivo
From the text: The herbicides were applied in the “spray to drip” amount or at a calibrated 20-60 gallons/acre. “Spray to drip” is an uncalibrated application of fluid to foliage, where sufficient spray volume is used to sufficiently saturate the foliage surface until excess fluid begins to drip from the foliage. In general, about 5 to 200 gallons/acre, preferably 20-100 gallons/acre can be effective.

[13] = system: 40 G/a: crab grass, chickweed and common lambsquarter; 60 G/a: redtop, pigweed, foxtail; spray to drip: barnyard grass, foxtail, sudan grass and nutsedge; assay: Herbicidal combinations of caprylic/capric (c/c) or pelargonic acid with equimolar succinic acid and ammonium succinate, on weed varieties; format: in vivo
[14] = system: 60 G/a: redroot pigweed, foxtail and velvetleaf; spray to drip: foxtail, dry beans and pigweed; assay: Herbicidal activity: caprylic acid and succinic acid +/- ammonium sulfate; format: in vivo
From the text: as §1

Potato, variety Katahdin = assay: Potato field trial: 2 applications of selected herbicides, including Desiccate II; format: in vivo; conditions: scale 1-5
From the text: as §1

[15] = Measurement of pH values for test desiccants (Example 56); format: physicochemical
soybeans [16] = assay: Synergistic relationships: succinic acid + caprylic acid, succinic acid + sodium salicylate, testing soybeans; format: in vivo; conditions: 3 days after a single foliar application, soybean Stine 2250; for Overall Effect: 5 equals profound desiccation
From the text: as §1

[17] = Measurement of pH values for test desiccants (Example 55); format: physicochemical
soybeans [18] = assay: Synergy comparisons of various organic acids with caprylic acid, testing soybeans; format: in vivo; conditions: 3 days after a single foliar application, average of 2 sites, soybean Stine 2250
From the text: as §1

Turf = assay: Synergistic relationships between succinic acid and caprylic acid (or sodium salicylate), testing turf; format: in vivo; conditions: 2 days after a single foliar application, 5 equals profound desiccation
From the text: as §1

[19] = system: chickweed, redtop, velvetleaf, crabgrass and green foxtail; assay: Enhancement of herbicidal activity of caprylic/capric acids (c/c) using selected compounds at equimolar amounts; format: in vivo
From the text: as §1

[20] = Day 2, one application at 40 G/acre, treatments 1-4, 9-11 in Emsorb 6900/mineral oil/Hasten, 5-8, 12-14 in 0.3% Sylgard 309
[21] = Day 1, one application at 40 G/acre, treatments 1-4, 9-11 in Emsorb 6900/mineral oil/Hasten, 5-8, 12-14 in 0.3% Sylgard 309
[22] = 40 G/a, 60 G/a and spray to drip
[23] = rating 1 to 5, 5 = complete desiccation of all plants
[24] = 60 G/a, rating 1-5 per pot, 1% Emsorb, 0.3% Hasten

Compound: O=C(O)CCC(=O)O [0.5% succinic acid, succinic acid]
Injury rating, average per plot [1, 20]: 0
% desiccation (Day 12), foliage [1]: 0%
% desiccation (Day 12), pods [1]: 0%
% desiccation (Day 12), vines [1]: 0%
Injury rating, average per plot ([1]; Day 12): 0
Injury rating, average per plot [2, 21]: 0
Injury rating, average per plot ([2]; Day 2): 0
Injury rating, average per plot ([2]; Day 3): 0
Injury rating, average per plot ([2]; Day 4): 0
% desiccation (Day 12), foliage [2]: 0%
% desiccation (Day 12), pods [2]: 0%
% desiccation (Day 12), vines [2]: 0%
Injury rating, average per plot ([2]; Day 12): 0
Total injury ratings, Total [3, 22]: 0
Total injury ratings, 40 G/a ([3]; 40 G/a, 9 pots/treatment, rating 1-5 per pot, 1.125% Emsorb 6900): 0
Total injury ratings, 60 G/a ([3]; 60 G/a, 10 pots/treatment): 0
Total injury ratings, Spray to drip ([3]; spray to drip, 7 pots/treatment): 0
Injury ratings, Total (plants [4]; 40 G/a + 60 G/a): 0
Injury ratings based on 2 independent evaluations, 40 G/a (plants [4]; 40 G/acre: Canadian thistle, velvet leaf, Johnson grass and giant foxtail, each pot rated 1 to 5): 0
Injury ratings based on 2 independent evaluations, 60 G/a (plants [4]; 60 G/acre: velvetleaf, Johnson grass and giant foxtail, each pot rated 1 to 5): 0
Average rating per pot (plants [4]; [23]): 0

Compound: O=C([O-])c1ccccc1O.[Na+] [1.5% sodium salicylate, sodium salicylate]
Injury rating, Spray to drip ([5]; rating 1-5 per pot, three evaluations, 30% acetone, 0.3% Sylgard 309): 56.2
Injury rating, Average rating per pot ([5]; scale 1-5, spray to drip): 3.51

Compound: CCCCCC(=O)O [2% caproic, caproic acid]
Total Injury ratings, Total score [6]: 18.5
Total injury ratings, 60 G/a [6]: 11.2
Total injury ratings, Spray to drip [6]: 7.3

Compound: CCCCCCCC(=O)O [2% caprylic, caprylic acid]
Injury ratings of treated plants, day 1 (young potato plants; 1 day after application, 6 = complete desiccation): 5
Injury ratings of treated plants, day 3 (young potato plants; 3 days after application, 6 = complete desiccation): 5
Injury ratings of treated plants, day 6 (young potato plants; 6 days after application, 6 = complete desiccation): 5
Injury ratings of treated plants, day 17 (young potato plants; 17 days after application, 6 = complete desiccation): 5
Injury ratings of treated plants, day 22 (young potato plants; 22 days after application, 6 = complete desiccation): 5.5
Injury ratings of treated plants, day 27 (young potato plants; 27 days after application, 6 = complete desiccation): 5.5
Injury ratings of treated plants, […] (young potato plants; […] after application, 6 = complete desiccation): 3.5
All evaluations (total score) (young potato plants; total of all evaluation times): 34.5
Injury rating, total score for 2 evaluations, Total Rating ([7]; 60 G/a plus spray to drip): 123.4
Injury rating, total score for 2 evaluations, 60 G/a [7, 24]: 73.6
Average rating per pot ([7]; scale 1-5): 4.11
Injury rating, total score for 2 evaluations, Spray to drip ([7]; spray to drip): 49.8
Total Injury ratings, Total score ([8]; 60 G/a plus spray to drip): 69.2
Total injury ratings, 60 G/a ([8]; 60 G/a, 8 pots/treatment, 2 evaluations, rating 1-5 per pot, 1% Emsorb 6900): 61
Total injury ratings, Spray to drip ([8]; spray to drip, 2 pots/treatment, velvetleaf and foxtail, 1 evaluation): 8.2

Compound: CCCCCCCCC(=O)O [2.5% pelargonic]
Injury ratings based on 2 independent evaluations, 40 G/a (plants [9]; 40 G/a: lambsquarter, velvetleaf and green foxtail, each pot rated 1 to 5): 79.2
Injury ratings based on 2 independent evaluations, 60 G/a (plants [9]; 60 G/a: pigweed, chickweed, crabgrass, green foxtail, velvetleaf, lambsquarter and wheat, each pot rated 1 to 5): 102.2
Injury ratings based on 2 independent evaluations, Spray to drip (plants [9]; Spray to drip: nutsedge, velvetleaf, green foxtail, giant foxtail and barnyard grass, each pot rated 1 to 5): 53.8
Average rating per pot (plants [9]; [23]): 4.36

Compound: CCCCCC(=O)O [3% caproic, caproic acid]
Total Injury ratings, Total score [6]: 20.9
Total injury ratings, 60 G/a [6]: 13.9
Total injury ratings, Spray to drip [6]: 7

Compound: CCCCCCCC(=O)O [3% caprylic, caprylic acid]
Injury rating, total score for 2 evaluation, Total Rating ([10]; 60 G/a plus spray to drip): 123.5
Injury rating, total score for 2 evaluation, 60 G/a [10, 24]: 88.1
Average rating per pot ([10]; scale 1-5): 4.41
Injury rating, total score for 2 evaluation, Spray to drip ([10]; spray to drip): 35.4
Injury rating, average per plot [1, 20]: 4
% desiccation (Day 12), foliage [1]: 80%
% desiccation (Day 12), pods [1]: 95%
% desiccation (Day 12), vines [1]: 92%
Injury rating, average per plot ([1]; Day 12): 4.73
Injury rating, total score for 2 evaluations, Total Rating ([11]; 60 G/a plus spray to drip): 178.4
Injury rating, total score for 2 evaluations, 60 G/a [11, 24]: 142
Average rating per pot ([11]; scale 1-5): 4.05
Injury rating, total score for 2 evaluations, Spray to drip ([11]; spray to drip): 36.6
Injury rating, average per plot [2, 21]: 3.5
Injury rating, average per plot ([2]; Day 2): 3.93
Injury rating, average per plot ([2]; Day 3): 3.93
Injury rating, average per plot ([2]; Day 4): 4
% desiccation (Day 12), foliage [2]: 50%
% desiccation (Day 12), pods [2]: 80%
% desiccation (Day 12), vines [2]: 10%
Injury rating, average per plot ([2]; Day 12): 4.2
Injury ratings based on 2 independent evaluations, 40 G/acre (plants [12]; 40 G/acre: chickweed, redroot pigweed, lambsquarter and green foxtail, each pot rated 1 to 5): 40.8
Injury ratings based on 2 independent evaluations, 60 G/acre (plants [12]; 60 G/acre: chickweed, redroot pigweed, lambsquarter, green foxtail, crabgrass and wheat, each pot rated 1 to 5): 51.6
Average rating per pot (plants [12]; [23]): 4.16

Compound: CCCCCCCCC(=O)O [3% pelargonic acid, pelargonic acid]
Total injury ratings, Total [13, 22]: 185.8
Total injury ratings, 40 G/a ([13]; 40 G/a, 10 pots/treatment, two evaluations, rating 1-5 per pot, 1% Emsorb 6900): 87.7
Total injury ratings, 60 G/a ([13]; 60 G/a, 7 pots/treatment, two evaluations): 60.8
Average rating/pot ([13]; scale 1-5): 4.42
Total injury ratings, Spray to drip ([13]; spray to drip, 8 pots/treatment, one evaluation): 37.3

Compound: CCCCCCCC(=O)O [4% caprylic acid, caprylic acid]
Total Injury ratings, combined, for two separate evaluations, Total Rating ([14]; 60 G/a plus spray to drip): 116.8
Total Injury ratings, combined, for two separate evaluations, 60 G/a ([14]; 60 G/a, 7 pots/treatment, rating 1-5 per pot, 1% Emsorb 6900): 60.7
Average rating/pot ([14]; scale 1-5): 4.49
Total Injury ratings, combined, for two separate evaluations, Spray to drip ([14]; spray to drip, 6 pots/treatment): 56.1

Compound: CCCCCCCCC(=O)O [5% pelargonic, pelargonic acid]
Injury rating, average per plot (Potato, variety Katahdin; Day 1, 40-42 G/acre, 2nd treatment 2 days after 1st): 4.07
Injury rating, average per plot (Potato, variety Katahdin; Day 2): 4
Injury rating, average per plot (Potato, variety Katahdin; Day 3): 4.13
Injury rating, average per plot (Potato, variety Katahdin; Day 5): 4.43

pH Value [15]: 6.65
Compound: NCCC(=O)O [Beta-Alanine (0.5%)]

Compound: CCCCCCCC(=O)O [Caprylic Acid (1%)]
Foliage Affected (%) (soybeans [16]): 25-30%
Overall Effect (soybeans [16]): 2.5

Compound: O=C(O)C(O)C(O)C(=O)O [L-Tartaric Acid (0.5%)]
pH Value [15]: 1.72
pH Value [17]: 1.52
Foliage Affected (%) (soybeans [18]): 0%
Overall Effect (soybeans [18]; 5 equals profound desiccation): 0

Compound: O=C([O-])c1ccccc1O.[Na+] [Sodium Salicylate (0.5%)]
pH Value [15]: 4.48

Compound: O=C(O)CCC(=O)O [Succinic Acid (0.5)]
Overall Effect (Turf): 0

Compound: N.N.O=C(O)CCC(=O)O [ammonium succinate]
Rating of additive tested alone ([13]; footnote): Since succinic acid (or ammonium succinate) tested alone had a rating of zero, pelargonic acid (or c/c) + succinic acid (or ammonium succinate) were synergistic. The exception was: 3% pelargonic acid + 1.26% ammonium succinate

Compound: O=C(O)CCC(=O)O [succinic acid (1%), succinic acid]
Relative injury ratings, Day #2 ([19]; Day 2 after treatment, 40 G/acre, 8 pots, rating 1-5 per pot, […] Emsorb 6900, […] mineral oil): 0
Relative injury ratings, Day #4 ([19]; Day 4 after treatment): 0
Relative injury ratings, Day #5 ([19]; Day 5 after treatment): 0
Average rating per pot ([19]; scale 1-5): 0
Foliage Affected (%) (soybeans [16]): 0%
Overall Effect (soybeans [16]): 0
